Assay results from PMC4004800, “Preclinical evaluation of marketed sodium channel blockers in a rat model of myotonia discloses promising antimyotonic drugs” (Experimental Neurology, 2014).

biological target: T1, hNav1.4 (human skeletal muscle sodium channel) (Homo sapiens, UniProt P35499); assay: whole-cell patch clamp, sodium current in HEK293; format: cell-based; conditions: holding potential -90 mV, 5 ms pulses to -30 mV at 50 Hz (myotonia-like), tonic + use-dependent block; read by eye from curve; 20-22 °C, pH 7.4; read-out: IC50 (μM) / 50 Hz, hp - 90 mV
T1 construct: gene SCN4A; alpha subunit permanently transfected in HEK293 cells; no beta subunit mentioned
Description: whole-cell patch clamp, sodium current in HEK293 on hNav1.4 (human skeletal muscle sodium channel)

T1 sequence (P35499 whole entry): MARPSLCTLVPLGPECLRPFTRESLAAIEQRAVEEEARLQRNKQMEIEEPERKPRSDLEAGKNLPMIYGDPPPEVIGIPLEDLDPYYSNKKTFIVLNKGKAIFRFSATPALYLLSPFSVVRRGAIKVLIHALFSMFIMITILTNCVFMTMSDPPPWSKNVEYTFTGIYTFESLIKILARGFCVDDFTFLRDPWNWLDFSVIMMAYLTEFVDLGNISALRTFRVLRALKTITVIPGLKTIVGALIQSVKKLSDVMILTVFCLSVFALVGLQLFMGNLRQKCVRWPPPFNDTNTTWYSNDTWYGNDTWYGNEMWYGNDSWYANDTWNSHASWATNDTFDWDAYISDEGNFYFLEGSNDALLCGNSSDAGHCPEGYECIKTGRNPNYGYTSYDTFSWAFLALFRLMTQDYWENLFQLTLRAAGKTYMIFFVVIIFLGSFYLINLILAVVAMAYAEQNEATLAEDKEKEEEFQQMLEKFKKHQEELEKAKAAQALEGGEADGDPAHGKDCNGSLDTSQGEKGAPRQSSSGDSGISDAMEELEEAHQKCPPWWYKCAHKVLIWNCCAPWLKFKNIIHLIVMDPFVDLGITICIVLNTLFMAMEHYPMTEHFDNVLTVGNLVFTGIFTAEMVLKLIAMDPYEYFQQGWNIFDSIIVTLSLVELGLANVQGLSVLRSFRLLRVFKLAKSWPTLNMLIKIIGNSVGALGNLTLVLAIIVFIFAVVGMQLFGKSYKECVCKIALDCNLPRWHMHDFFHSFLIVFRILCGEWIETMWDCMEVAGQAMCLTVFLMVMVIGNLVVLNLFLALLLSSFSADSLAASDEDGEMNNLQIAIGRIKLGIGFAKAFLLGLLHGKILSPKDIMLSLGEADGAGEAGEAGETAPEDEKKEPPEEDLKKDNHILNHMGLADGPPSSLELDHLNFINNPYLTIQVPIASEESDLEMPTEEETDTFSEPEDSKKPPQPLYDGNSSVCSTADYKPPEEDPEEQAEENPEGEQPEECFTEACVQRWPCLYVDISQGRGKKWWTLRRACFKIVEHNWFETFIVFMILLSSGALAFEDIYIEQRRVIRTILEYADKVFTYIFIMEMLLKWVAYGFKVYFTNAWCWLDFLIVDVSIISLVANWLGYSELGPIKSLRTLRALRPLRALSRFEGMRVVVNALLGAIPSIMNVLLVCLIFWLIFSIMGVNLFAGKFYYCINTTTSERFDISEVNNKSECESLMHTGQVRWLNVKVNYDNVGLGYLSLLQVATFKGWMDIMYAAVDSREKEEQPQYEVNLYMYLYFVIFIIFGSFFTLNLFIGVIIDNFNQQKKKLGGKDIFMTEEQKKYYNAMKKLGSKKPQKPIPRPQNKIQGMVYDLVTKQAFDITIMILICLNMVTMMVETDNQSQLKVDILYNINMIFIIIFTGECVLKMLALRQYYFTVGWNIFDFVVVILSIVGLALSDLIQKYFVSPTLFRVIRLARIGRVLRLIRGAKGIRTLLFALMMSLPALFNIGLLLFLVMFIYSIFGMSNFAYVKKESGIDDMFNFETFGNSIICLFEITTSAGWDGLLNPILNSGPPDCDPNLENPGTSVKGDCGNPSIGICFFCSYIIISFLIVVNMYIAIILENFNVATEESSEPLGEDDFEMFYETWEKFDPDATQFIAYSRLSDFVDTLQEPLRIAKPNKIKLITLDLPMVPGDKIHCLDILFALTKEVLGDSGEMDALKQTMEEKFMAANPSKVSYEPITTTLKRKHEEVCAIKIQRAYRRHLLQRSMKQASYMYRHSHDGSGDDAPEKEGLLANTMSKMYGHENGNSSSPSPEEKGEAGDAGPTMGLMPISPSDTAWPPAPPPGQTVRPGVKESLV

Row | Compound | IC50 [µM]
1 | Lubeluzole | ~0.3

same assay, conditions: read-out: IC50 (μM) / 50 Hz, hp - 90 mV

Row | Compound | IC50 [µM]
2 | NC(=O)N1c2ccccc2C=Cc2ccccc21 [Carbamazepine] | ~100
3 | O=C(NCC1CCCCN1)c1cc(OCC(F)(F)F)ccc1OCC(F)(F)F (stereo not shown) [Flecainide] | ~4
4 | Cc1cccc(C)c1OCC(C)N (stereo not shown) [Mexiletine] | ~20
5 | CCCNCC(O)COc1ccccc1C(=O)CCc1ccccc1 (stereo not shown) [Propafenone] | ~1.5
6 | Nc1nc2ccc(OC(F)(F)F)cc2s1 [Riluzole] | ~0.9
7 | NC(=O)N1c2ccccc2C2OC2c2ccccc21 (stereo not shown) [epo-CBZ] | ~70
